Patent US8680113B2, “BMI-1 protein expression modulators” (PTC Therapeutics, Inc., priority 2008, dated 2014)
pIC50: −log10 of the molar value.

Tested on: Bmi-1
Assay: Sandwich ELISA Assay (Bmi-1 ELISA in HT-1080 cells)
Type: cell-based, human
Experimental: Cell Seeding and Compound Treatment (Day 1):
HT-1080 cells were seeded at 8000 cells/well (50 uL) in 96-well tissue culture plates. After the cells become adherent (3-4 hours), 2× diluted stocks of compounds in 50 uL DMEM containing 1% DMSO (final DMSO concentration was 0.5%) were added and the plates were incubated at 37° C. under 5% CO2 for 40-48 hours
ELISA Plate First Antibody Preparation (Day 2):
The First Antibody (Millipore Mouse, monoclonal to mouse Bmi-1, clone F6, catalog #05-637) diluted to 2 ug/mL in PBS was added (100 uL) to each well of a Nunc MaxiSorp 96-well ELISA plate. The plate was covered with a plate seal and allowed to stand overnight.
Cell Lysate Preparation (Day 3):
Fresh 1× Lysis buffer was prepared on the day of the assay as follows: 1 mM EDTA, 150 mM NaCl, 0.5% Triton-X 100, 10 mM NaF, 20 mM B-Glycerophosphate, 1 mM DTT (in PBS, pH 7.2-7.4) and 1×HALT protease inhibitor cocktail (Pierce #78410).
1× Lysis Buffer (40 uL) was added to each well and the plate was shaken for 5-10 minutes on an orbital shaker to allow cell lysis, then Diluent (1% BSA in PBS in 0.5% NP40) (100 uL) was added to each well.
The Bmi-1 standard curve was prepared in Diluent at the following concentrations of protein: 8000, 4000, 2000, 1000, 500, 250, 125, 0 pg/mL The Bmi-1 Recombinant Protein Standard (Novus Biologicals PCGF4 Recombinant Protein (P01), catalog #H00000648-P01) used in the standard curve was stored at −80° C., and on first thaw, diluted to 10 ug/uL in Blocking Buffer (1% BSA in PBS; BSA: Fisher Scientific Catalog #1600-100) before being aliquoted and refrozen at −80° C. Aliquots can be kept at 4° C. and reused after first thaw, but only for 1-2 weeks. The Bmi-1 Recombinant Protein Standard contains a GST-fusion tag and thus will show up on western blots around 70 Kda.
The prepared ELISA plate was washed 3× with Wash Buffer (0.05% Tween-20 in PBS). The final wash was removed from the plate and the plate was blotted dry on paper towels. Blocking Buffer (300 uL) (1% BSA in PBS) was added per well. The plate was covered with a plate seal and incubated at room temperature for 1 hour. The blocked plate was washed 3× with Wash Buffer, the final wash was removed and the plate was blotted dry on paper towels. The previously prepared samples and standards were added (at 100 uL/well) and the plate was covered with a plate seal and incubated at 4° C. overnight.
The prepared ELISA plate was removed from 4° C., incubated at room temperature for 30 minutes, then washed and blotted dry as previously described for Day 3. The Second Antibody (Cell Signaling Rabbit anti-Bmi-1, Cat#2830) diluted to 1:600 in Blocking Buffer was added (100 uL) to each well, except as needed for background control wells. The plate was covered with a plate seal and incubated for 1.5 hrs at room temperature.
The ELISA plate was washed and blotted dry as previously described. The Third Antibody (Cell Signaling HRP conjugated anti-rabbit IgG (CellSignaling, Cat#:7074) diluted to 1:300 in Blocking Buffer was added (100 uL) to each well, except as needed for background control wells. The plate was incubated for 1 hr at room temperature.
The plate was washed and blotted dry as previously described, then prepared TMB substrate (TMB substrate kit, Pierce catalog #34021) (prepared by mixing kit reagents 1:1) (100 uL) was added per well. The plate was incubated for 20-30 minutes at room temperature in the dark, then Stop Solution (2 M sulfuric acid in water) (50 uL) was added per well. The plates were read at OD450 (experimental) and OD570 (reference).

SMILES	pIC50
Cc1nc2ccc(Cl)cn2c1-c1csc(Nc2ccc(C(C)C)cc2)n1 [Cpd 91, 4-(6-chloro-2-methylimidazo[1,2-a]pyridin-3-yl)-N-[4-(propan-2-yl)phenyl]-1,3-thiazol-2-amine]	> 6.30
Cc1nc2ccc(Cl)cn2c1-c1csc(Nc2ccc(O)cc2)n1 [Cpd 92, 4-{[4-(6-chloro-2-methylimidazo[1,2-a]pyridin-3-yl)-1,3-thiazol-2-yl]amino}phenol]	> 6.30
COCCOc1ccc(Nc2nc(-c3c(C)nc4ccc(Cl)cn34)cs2)cc1 [Cpd 93, 4-(6-chloro-2-methylimidazo[1,2-a]pyridin-3-yl)-N-[4-(2-methoxyethoxy)phenyl]-1,3-thiazol-2-amine]	> 6.30
Cc1nc2c(O)cccn2c1-c1csc(Nc2ccc3c(c2)OCO3)n1 [Cpd 94, 3-[2-(1,3-benzodioxol-5-ylamino)-1,3-thiazol-4-yl]-2-methylimidazo[1,2-a]pyridin-8-ol]	> 6.30
COc1ccc(Nc2nc(-c3c(C)nc4ccc(Cl)cn34)cs2)cc1Cl [Cpd 95, N-(3-chloro-4-methoxyphenyl)-4-(6-chloro-2-methylimidazo[1,2-a]pyridin-3-yl)-1,3-thiazol-2-amine]	> 6.30
COc1ccc(Nc2nc(-c3c(C)nc4ccc(Cl)cn34)cs2)cc1F [Cpd 96, 4-(6-chloro-2-methylimidazo[1,2-a]pyridin-3-yl)-N-(3-fluoro-4-methoxyphenyl)-1,3-thiazol-2-amine]	> 6.30
CC(=O)Nc1ccc(Nc2nc(-c3c(C)nc4ccc(Cl)cn34)cs2)cc1 [Cpd 97, N-(4-{[4-(6-chloro-2-methylimidazo[1,2-a]pyridin-3-yl)-1,3-thiazol-2-yl]amino}phenyl)acetamide]	> 6.30
Cc1nc2ccc(Cl)cn2c1-c1csc(Nc2c(Cl)cccc2Cl)n1 [Cpd 98, 4-(6-chloro-2-methylimidazo[1,2-a]pyridin-3-yl)-N-(2,6-dichlorophenyl)-1,3-thiazol-2-amine]	> 6.30
CC(=O)c1ccc(Nc2nc(-c3c(C)nc4ccc(Br)cn34)cs2)cc1 [Cpd 99, 1-(4-{[4-(6-bromo-2-methylimidazo[1,2-a]pyridin-3-yl)-1,3-thiazol-2-yl]amino}phenyl)ethanone]	> 6.30
Cc1nc2ccc(Br)cn2c1-c1csc(Nc2ccc(Cl)cc2)n1 [Cpd 100, 4-(6-bromo-2-methylimidazo[1,2-a]pyridin-3-yl)-N-(4-chlorophenyl)-1,3-thiazol-2-amine]	> 6.30
Cc1nc2ccc(Br)cn2c1-c1csc(Nc2ccc(I)cc2)n1 [Cpd 101, 4-(6-bromo-2-methylimidazo[1,2-a]pyridin-3-yl)-N-(4-iodophenyl)-1,3-thiazol-2-amine]	> 6.30
Cc1nc2ccc(Br)cn2c1-c1csc(Nc2ccc(Br)cc2)n1 [Cpd 102, 4-(6-bromo-2-methylimidazo[1,2-a]pyridin-3-yl)-N-(4-bromophenyl)-1,3-thiazol-2-amine]	> 6.30
COc1ccc(Nc2nc(-c3c(C)nc4ccc(Br)cn34)cs2)cc1Cl [Cpd 103, 4-(6-bromo-2-methylimidazo[1,2-a]pyridin-3-yl)-N-(3-chloro-4-methoxyphenyl)-1,3-thiazol-2-amine]	> 6.30
COc1ccc(Nc2nc(-c3c(C)nc4ccc(Br)cn34)cs2)cc1F [Cpd 104, 4-(6-bromo-2-methylimidazo[1,2-a]pyridin-3-yl)-N-(3-fluoro-4-methoxyphenyl)-1,3-thiazol-2-amine]	> 6.30
COc1ccc(Nc2nc(-c3cnc4ccc(Cl)cn34)cs2)cc1 [Cpd 105, 4-(6-chloroimidazo[1,2-a]pyridin-3-yl)-N-(4-methoxyphenyl)-1,3-thiazol-2-amine]	> 6.30
CN(C)c1ccc(Nc2nc(-c3cnc4ccc(Cl)cn34)cs2)cc1 [Cpd 106, N′-[4-(6-chloroimidazo[1,2-a]pyridin-3-yl)-1,3-thiazol-2-yl]-N,N-dimethylbenzene-1,4-diamine]	> 6.30
CC(=O)c1ccc(Nc2nc(-c3cnc4ccc(Cl)cn34)cs2)cc1 [Cpd 107, 1-(4-{[4-(6-chloroimidazo[1,2-a]pyridin-3-yl)-1,3-thiazol-2-yl]amino}phenyl)ethanone]	> 6.30

SMILES	pIC50
Clc1ccc2ncc(-c3csc(Nc4ccc(I)cc4)n3)n2c1 [Cpd 108, 4-(6-chloroimidazo[1,2-a]pyridin-3-yl)-N-(4-iodophenyl)-1,3-thiazol-2-amine]	> 6.30
COc1ccc(Nc2nc(-c3cnc4ccc(Cl)cn34)cs2)cc1Cl [Cpd 109, 4-(6-chloroimidazo[1,2-a]pyridin-3-yl)-N-(3-chloro-4-methoxyphenyl)-1,3-thiazol-2-amine]	> 6.30
COc1ccc(Nc2nc(-c3cnc4ccc(Cl)cn34)cs2)cc1F [Cpd 110, 4-(6-chloroimidazo[1,2-a]pyridin-3-yl)-N-(3-fluoro-4-methoxyphenyl)-1,3-thiazol-2-amine]	> 6.30
Cc1nc2ccc(Cl)cn2c1-c1csc(Nc2ccc(Cl)c(Cl)c2)n1 [Cpd 111, 4-(6-chloro-2-methylimidazo[1,2-a]pyridin-3-yl)-N-(3,4-dichlorophenyl)-1,3-thiazol-2-amine]	> 6.30
Cc1nc2ccc(Cl)cn2c1-c1csc(Nc2ccc(C(C)(C)C)cc2)n1 [Cpd 112, N-(4-tert-butylphenyl)-4-(6-chloro-2-methylimidazo[1,2-a]pyridin-3-yl)-1,3-thiazol-2-amine]	> 6.30
Cc1nc2ccccn2c1-c1ccnc(Nc2ccc(Cl)cc2)n1 [Cpd 113, N-(4-chlorophenyl)-4-(2-methylimidazo[1,2-a]pyridin-3-yl)pyrimidin-2-amine]	> 6.30
Cc1nc2ccccn2c1-c1ccnc(Nc2ccc(Br)cc2)n1 [Cpd 114, N-(4-bromophenyl)-4-(2-methylimidazo[1,2-a]pyridin-3-yl)pyrimidin-2-amine]	> 6.30
COc1ccc(Nc2nccc(-c3c(C)nc4ncccn34)n2)cc1 [Cpd 115, N-(4-methoxyphenyl)-4-(2-methylimidazo[1,2-a]pyrimidin-3-yl)pyrimidin-2-amine]	> 6.30
CCOc1ccc(Nc2nccc(-c3c(C)nc4ncccn34)n2)cc1 [Cpd 116, N-(4-ethoxyphenyl)-4-(2-methylimidazo[1,2-a]pyrimidin-3-yl)pyrimidin-2-amine]	> 6.30
CC(=O)c1ccc(Nc2nccc(-c3c(C)nc4ccccn34)n2)cc1 [Cpd 117, 1-(4-{[4-(2-methylimidazo[1,2-a]pyridin-3-yl)pyrimidin-2-yl]amino}phenyl)ethanone]	> 6.30
Cc1nc2ccccn2c1-c1ccnc(Nc2cccc(N(C)C)c2)n1 [Cpd 118, N,N-dimethyl-N′-[4-(2-methylimidazo[1,2-a]pyridin-3-yl)pyrimidin-2-yl]benzene-1,3-diamine]	> 6.30
Cc1nc2ccccn2c1-c1ccnc(Nc2ccc(I)cc2)n1 [Cpd 119, N-(4-iodophenyl)-4-(2-methylimidazo[1,2-a]pyridin-3-yl)pyrimidin-2-amine]	> 6.30
Cc1nc2ncccn2c1-c1ccnc(Nc2ccc(I)cc2)n1 [Cpd 120, N-(4-iodophenyl)-4-(2-methylimidazo[1,2-a]pyrimidin-3-yl)pyrimidin-2-amine]	> 6.30
Cc1nc2ncccn2c1-c1nc(Nc2ccc(Br)cc2)sc1C [Cpd 121, N-(4-bromophenyl)-5-methyl-4-(2-methylimidazo[1,2-a]pyrimidin-3-yl)-1,3-thiazol-2-amine]	> 6.30
Cc1nc2ncccn2c1-c1nc(Nc2ccc(I)cc2)sc1C [Cpd 122, N-(4-iodophenyl)-5-methyl-4-(2-methylimidazo[1,2-a]pyrimidin-3-yl)-1,3-thiazol-2-amine]	> 6.30
Cc1nc2ccccn2c1-c1ccnc(Nc2ccc3c(c2)OCO3)n1 [Cpd 123, N-(1,3-benzodioxol-5-yl)-4-(2-methylimidazo[1,2-a]pyridin-3-yl)pyrimidin-2-amine]	> 6.30
